This is an account of results in US20090004171A1, “COMPOUND PROFILING METHOD” (CYTOPATHFINDER, INC., priority 2007, published 2009).

In one test the test system is SK-BR-3. Conditions: SK-BR-3 breast cancer cell; stated as known; cited from earlier work.
A further test relates to MCF7. Conditions: MCF7 breast cancer cells; cited from earlier work.
A further test deals with T-47D cell. To be noted: T-47D human derived breast cancer cell, compared with SK-BR-3; cited from earlier work.
The next test deals with SHSY5Y cell. The test is described as follows: Exposure of SHSY5Y neuroblastoma cells to differentiation stimulants (neuron projection extension, marker enzyme expression). Type of test: cell-based. To be noted: human neuroblastoma. An excerpt:
The functions of (1) and (2) are different, but share the same properties in terms of extension of neuron projection. Therefore, cellular components necessary for these two intracellular alteration were specified experimentally by means of RNA interference method. As such, it was obtained that the component collection (3) necessary for the alteration from SHSY5Y to (1) are {JAK1, JAK3, ROR, and RET}. On the other hand, the component collection (4) necessary for the alteration from SHSY5Y cells to (2), are {NTRK1, EPHB2, INSR, RDGFRA, ROR and RET}. When comparing and calculation of intersection is done for (3) and (4), the intersection (5) was obtained to read {ROR and RET}. Next, the collection (6) {JAK1 and JAK3} by subtraction of (3)−(5) and the collection (5) were analyzed in terms of an intermolecular interaction, and the existence of a pathway of a molecular signals from (6) to (5) (FIG. 3A) was determined. Furthermore, the collection (7) which was obtained by the subtraction of (4)−(5), and the collection (5) were analyzed in terms of an intermolecular interaction, and the existence of a pathway of molecular signals from (7) to (5) (FIG. 3B) was further determined. The common components and pathway relating to the projection extension by retinoic acid (RA) and Nerve Growth Factor (NGF) are shown in FIG. 4.

In the case of `COc1cccc2c1C(=O)c1c(O)c3c(c(O)c1C2=O)C[C@@](O)(C(=O)CO)C[C@@H]3O[C@H]1C[C@H](N)[C@H](O)[C@H](C)O1` [doxorubicin], in the test on SK-BR-3, the “effect on cell growth” value was “growth inhibition”. In addition, the “DXR sensitivity / resistance” value in the test on MCF7 is reported as “DXR resistance”. Moreover, the DXR sensitivity result in the test on T-47D cell is reported as “same DXR sensitivity as the SK-BR-3”.

“Nerve Growth Factor: Nerve Growth Factor, stimulant triggering neurite outgrowth of SHSY5Y cells”: in the test with SHSY5Y cell, the “expression of tyrosine hydroxylase” value is “tyrosine hydroxylase was expressed” and the “extension of neuron projection” value is listed as “caused extension of neuron projection”.
